Experimental data as given in the supplement of paper PMC9663587.

Assays:
[1] = compound: C=CCn1c(=O)c2cnc(Nc3ccc(N4CCN(C)CC4)cc3)nc2n1-c1cccc(C(C)(C)O)n1 [AZD1775]
[2] = compound: CC(=O)Nc1cccc(-n2c(=O)n(C3CC3)c(=O)c3c(Nc4ccc(I)cc4F)n(C)c(=O)c(C)c32)c1
[3] = compound: CC(C)Nc1cc(-c2c[nH]c(C(=O)N[C@H](CO)c3cccc(Cl)c3)c2)c(Cl)cn1 [BVD523]
[4] = compound: CCCCOc1c(C(=O)c2c(F)cc(C)cc2F)c[nH]c2nncc1-2
[5] = compound: T1, CN(C)C/C=C/C(=O)Nc1ccc(C(=O)N2CCC[C@@H](Nc3ncc(Cl)c(-c4c[nH]c5ccccc45)n3)C2)cc1 [THZ531]
[6] = compound: T2, CN(C)C/C=C/C(=O)Nc1ccc(C(=O)Nc2cccc(Nc3ncc(Cl)c(-c4c[nH]c5ccccc45)n3)c2)cc1 [THZ1]
[7] = compound: CN1CCN(CCOc2cc(OC3CCOCC3)c3c(Nc4c(Cl)ccc5c4OCO5)ncnc3c2)CC1 [Saracatinib/AZD0530]
[8] = compound: CNCc1ccc(-c2[nH]c3cc(F)cc4c3c2CCNC4=O)cc1 [Rucaparib]
[9] = compound: CO[C@@H](C)Cn1c(=O)n(C)c2cnc3ccc(-c4cncc(C(C)(C)O)c4)cc3c21
[10] = compound: COc1cc2c(Oc3ccc4[nH]c(C)cc4c3F)ncnc2cc1OCCCN1CCCC1 [Cediranib/AZD2171]
[11] = compound: COc1ccc2c(c1)[C@]1(C[C@H]1c1ccc3c(/C=C/c4ccc(CN5C[C@@H](C)O[C@@H](C)C5)cc4)n[nH]c3c1)C(=O)N2
[12] = compound: Cc1nc(NC(=O)N2CCC[C@H]2C(N)=O)sc1-c1ccnc(C(C)(C)C(F)(F)F)c1 [Alpelisib/BYL719]
[13] = compound: C=CC(=O)Nc1ccc(C(=O)Nc2[nH]nc3c2CN(C(=O)N[C@H](CN(C)C)c2ccccc2)C3(C)C)cc1 [YKL-5-124]; assay: increase in dead-cell fraction, 72 h; higher = more death;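 also: breast cancer cell lines in 384-well plates, stained with Hoechst plus LIVE/DEAD far red dye and imaged, cells above an LDR intensity threshold counted dead, Hoechst-negative corpses included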
[14] = compound: CC(=O)c1c(C)c2cnc(Nc3ccc(N4CCN(CCOCCOCCOCCNC(=O)COc5cccc6c5C(=O)N(C5CCC(=O)NC5=O)C6=O)CC4)cn3)nc2n(C2CCCC2)c1=O [BSJ-03-123]; assay: as above
[15] = compound: CC(=O)c1c(C)c2cnc(Nc3ccc(N4CCNCC4)cn3)nc2n(C2CCCC2)c1=O; assay: as above
[16] = compound: CCOc1cc2ncc(C#N)c(Nc3ccc(OCc4ccccn4)c(Cl)c3)c2cc1NC(=O)/C=C/CN(C)C [Neratinib/HKI272]; assay: as above
[17] = compound: CCc1cnn2c(NCc3ccc[n+]([O-])c3)cc(N3CCCC[C@H]3CCO)nc12; assay: as above
[18] = compound: CN(C)C(=O)c1cc2cnc(Nc3ccc(N4CCNCC4)cn3)nc2n1C1CCCC1 [LEE011/Ribociclib]; assay: as above
[19] = compound: T1, THZ531; assay: as above
[20] = compound: T2, THZ1; assay: as above
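For GR50, 72 h in this document: breast cancer and non-malignant breast epithelial cell lines, Deep Dye Drop or Dye Drop imaging, nine half-log doses, GR normalized to time-zero plates and DMSO-only controls.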

In the case of MCF12A, the “GR50, 72 h” value [1] is reported as 1.92 µM, the “GR50, 72 h” value [2] is reported as 0.00833 µM and the “GR50, 72 h” value [3] is reported as 5.73 µM. The “GR50, 72 h” value [4] was 7.57 µM, the “GR50, 72 h” value [5] was 0.632 µM and the “GR50, 72 h” value [6] was 0.15 µM. The “GR50, 72 h” value [7] was 9.02 µM, the “GR50, 72 h” value [8] was > 10 µM and the “GR50, 72 h” value [9] was 0.167 µM. The “GR50, 72 h” value [10] was > 10 µM, the “GR50, 72 h” value [11] was 0.0103 µM and the “GR50, 72 h” value [12] was > 10 µM. The “increase in dead-cell fraction” value ([13]; 0.001 µM) was 0.0376, the “increase in dead-cell fraction” value ([13]; 0.003162 µM) was 0.0894 and the “increase in dead-cell fraction” value ([13]; 0.01 µM) was 0.136. The “increase in dead-cell fraction” value ([13]; 0.03162 µM) was 0.155, the “increase in dead-cell fraction” value ([13]; 0.1 µM) was 0.184 and the “increase in dead-cell fraction” value ([13]; 0.3162 µM) was 0.177. For the same cell line, the “increase in dead-cell fraction” value ([13]; 1 µM) was 0.165, the “increase in dead-cell fraction” value ([13]; 3.162 µM) was 0.164 and the “increase in dead-cell fraction” value ([13]; 10 µM) was 0.252. For the same cell line, the “increase in dead-cell fraction” value ([14]; 0.001 µM) was -0.0046, the “increase in dead-cell fraction” value ([14]; 0.003162 µM) was 0.0003 and the “increase in dead-cell fraction” value ([14]; 0.01 µM) was 0.0014. For the same cell line, the “increase in dead-cell fraction” value ([14]; 0.03162 µM) was -0.0002, the “increase in dead-cell fraction” value ([14]; 0.1 µM) was 0.0054 and the “increase in dead-cell fraction” value ([14]; 0.3162 µM) was 0.0008. For the same cell line, the “increase in dead-cell fraction” value ([14]; 1 µM) was 0.0162, the “increase in dead-cell fraction” value ([14]; 3.162 µM) was 0.0226 and the “increase in dead-cell fraction” value ([14]; 10 µM) was 0.151. For the same cell line, the “increase in dead-cell fraction” value ([15]; 0.0003162 µM) was -0.0052, the “increase in dead-cell fraction” value ([15]; 0.001 µM) was -0.0036 and the “increase in dead-cell fraction” value ([15]; 0.003162 µM) was -0.0043. The “increase in dead-cell fraction” value ([15]; 0.01 µM) was -0.0067, the “increase in dead-cell fraction” value ([15]; 0.03162 µM) was -0.005 and the “increase in dead-cell fraction” value ([15]; 0.1 µM) was -0.003. For the same cell line, the “increase in dead-cell fraction” value ([15]; 0.3162 µM) was 0.0031, the “increase in dead-cell fraction” value ([15]; 1 µM) was 0.006 and the “increase in dead-cell fraction” value ([15]; 3.162 µM) was 0.0205. For the same cell line, the “increase in dead-cell fraction” value ([16]; 0.0003162 µM) was -0.002, the “increase in dead-cell fraction” value ([16]; 0.001 µM) was 0.0045 and the “increase in dead-cell fraction” value ([16]; 0.003162 µM) was 0.0065. The “increase in dead-cell fraction” value ([16]; 0.01 µM) was -0.0012, the “increase in dead-cell fraction” value ([16]; 0.03162 µM) was -0.0009 and the “increase in dead-cell fraction” value ([16]; 0.1 µM) was 0.0012. The “increase in dead-cell fraction” value ([16]; 0.3162 µM) was 0.029, the “increase in dead-cell fraction” value ([16]; 1 µM) was 0.0776 and the “increase in dead-cell fraction” value ([16]; 3.162 µM) was 0.146. For the same cell line, the “increase in dead-cell fraction” value ([17]; 0.0001 µM) was -0.0058, the “increase in dead-cell fraction” value ([17]; 0.0003162 µM) was 0.0036 and the “increase in dead-cell fraction” value ([17]; 0.001 µM) was 0.0056. For the same cell line, the “increase in dead-cell fraction” value ([17]; 0.003162 µM) was -0.0029, the “increase in dead-cell fraction” value ([17]; 0.01 µM) was 0.0006 and the “increase in dead-cell fraction” value ([17]; 0.03162 µM) was 0.0291. The “increase in dead-cell fraction” value ([17]; 0.1 µM) was 0.541, the “increase in dead-cell fraction” value ([17]; 1 µM) was 0.517 and the “increase in dead-cell fraction” value ([18]; 0.001 µM) was 0.0031. The “increase in dead-cell fraction” value ([18]; 0.003162 µM) was -0.0078, the “increase in dead-cell fraction” value ([18]; 0.01 µM) was 0.0001 and the “increase in dead-cell fraction” value ([18]; 0.03162 µM) was 0.0156. For the same cell line, the “increase in dead-cell fraction” value ([18]; 0.1 µM) was 0.002, the “increase in dead-cell fraction” value ([18]; 0.3162 µM) was 0.0029 and the “increase in dead-cell fraction” value ([18]; 1 µM) was 0.0076. For the same cell line, the “increase in dead-cell fraction” value ([18]; 3.162 µM) was 0.0018, the “increase in dead-cell fraction” value ([18]; 10 µM) was 0.0126 and the “increase in dead-cell fraction” value ([19]; 0.0001 µM) was 0.0108. For the same cell line, the “increase in dead-cell fraction” value ([19]; 0.0003162 µM) was 0.0023, the “increase in dead-cell fraction” value ([19]; 0.001 µM) was -0.0009 and the “increase in dead-cell fraction” value ([19]; 0.003162 µM) was 0.0027. For the same cell line, the “increase in dead-cell fraction” value ([19]; 0.01 µM) was 0.0039, the “increase in dead-cell fraction” value ([19]; 0.03162 µM) was 0.0089 and the “increase in dead-cell fraction” value ([19]; 0.1 µM) was 0.0009. For the same cell line, the “increase in dead-cell fraction” value ([19]; 0.3162 µM) was 0.0073, the “increase in dead-cell fraction” value ([19]; 1 µM) was 0.332 and the “increase in dead-cell fraction” value ([20]; 0.0001 µM) was 0. The “increase in dead-cell fraction” value ([20]; 0.0003162 µM) was -0.007, the “increase in dead-cell fraction” value ([20]; 0.001 µM) was 0.0031 and the “increase in dead-cell fraction” value ([20]; 0.003162 µM) was 0.0056. For the same cell line, the “increase in dead-cell fraction” value ([20]; 0.01 µM) was 0.0015, the “increase in dead-cell fraction” value ([20]; 0.03162 µM) was 0.0071 and the “increase in dead-cell fraction” value ([20]; 0.1 µM) was 0.0475. For the same cell line, the “increase in dead-cell fraction” value ([20]; 0.3162 µM) was 0.127 and the “increase in dead-cell fraction” value ([20]; 1 µM) was 0.697.
